Results published in paper PMC10892041, “Vanadium Complexes with Thioanilide Derivatives of Amino Acids: Inhibition of Human Phosphatases and Specificity in Various Cell Models of Metabolic Disturbances” (Pharmaceuticals, 2024).

What was measured:
[1] = Viability of myocytes C2C12 after 24 h incubation (resazurin-based reagent); details: mouse, C2C12 myocytes
Description: (§1) Simultaneously with glucose consumption tests, the viability of myocytes C2C12 was examined due to their prolonged 24 h incubation with vanadium complexes.
(§2) Prolonged incubation of the cells with vanadium complexes, as was the case during the study of the effect on glucose consumption, more closely corresponds to the actual conditions of clinical use, also allowing for the identification of possible cytotoxic effects. […] A Resazurin-based reagent is reduced proportionally to the metabolic activity of cells as a result of the transference of electrons from NADPH+H^+, the amount of which strictly depends on glucose metabolism.

PTP1B = molecular target: T1, PTP1B (Homo sapiens, UniProt P18031); assay: Inhibition of human recombinant tyrosine phosphatase PTP1B (DiFMUP fluorescence); type: biochemical; details: 1 µM; control solvent only; SD did not exceed 6%
T1 construct: purchased Sigma-Aldrich
T1 sequence (P18031 1-435): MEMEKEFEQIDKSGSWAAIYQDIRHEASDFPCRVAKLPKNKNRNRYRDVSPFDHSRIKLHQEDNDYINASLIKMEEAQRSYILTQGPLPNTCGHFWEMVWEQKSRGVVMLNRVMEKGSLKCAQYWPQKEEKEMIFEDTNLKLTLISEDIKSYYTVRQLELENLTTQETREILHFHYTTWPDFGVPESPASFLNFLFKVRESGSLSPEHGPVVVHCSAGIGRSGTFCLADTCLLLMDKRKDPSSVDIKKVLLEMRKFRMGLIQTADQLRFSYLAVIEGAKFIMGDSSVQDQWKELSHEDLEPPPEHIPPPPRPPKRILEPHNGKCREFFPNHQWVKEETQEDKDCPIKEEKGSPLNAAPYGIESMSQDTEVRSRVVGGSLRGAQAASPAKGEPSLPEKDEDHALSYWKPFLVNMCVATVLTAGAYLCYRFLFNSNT
Description: (§3) To determine the ability of the tested compounds for inhibition tyrosine phosphatases, human recombinant proteins were used (Sigma-Aldrich). The reactions were performed in black opaque 384-well microplates (PerkinElmer, Waltham, MA, USA). An equal volume of phosphatase solution in a reaction buffer (25 mM of 3-(N-morpholino)propanesulfonic acid (MOPS), 50 mM NaCl, 1 mM dithiothreitol (DTT), and 0.05% Tween-20 (pH 7.0)) was added to the solution of the tested compound on microplate. These solutions were dispensed using an automated injector. The following final concentrations of the tested phosphatases were used: PTP1B 50 ng/mL, SHP1 400 ng/mL, SHP2 50 ng/mL, LAR 5 ng/mL, and PTPRA 100 ng/mL. After 10 min, a solution of phosphate 6,8-difluoro-4-methyl (DiFMUP; Thermo Fisher Scientific) was added until its final concentration was 0.1 mM. Samples were incubated for 20 miN at 23 °C, and then the measurements of fluorescence intensity (excitation 355 and emission […]) were performed on a multifunctional plate reader POLARstar Omega (BMG Labtech, Ortenberg, Germany). Assays were performed in triplicate. For the screening assays, the final concentration of the tested compounds was 1 µM. The results were expressed as percent inhibition of untreated control (enzyme with vehicle only) for the screening tests. […] IC50 were calculated using GraphPad Prism version 6.0 software (GraphPad Software, Boston, MA, USA).

LAR = molecular target: T2, LAR (Homo sapiens, UniProt P10586); assay: Inhibition of human recombinant tyrosine phosphatase LAR (DiFMUP fluorescence); type: biochemical; details: 1 µM; control solvent only; SD did not exceed 6%
T2 sequence (P10586 1352-1607 limits assumed): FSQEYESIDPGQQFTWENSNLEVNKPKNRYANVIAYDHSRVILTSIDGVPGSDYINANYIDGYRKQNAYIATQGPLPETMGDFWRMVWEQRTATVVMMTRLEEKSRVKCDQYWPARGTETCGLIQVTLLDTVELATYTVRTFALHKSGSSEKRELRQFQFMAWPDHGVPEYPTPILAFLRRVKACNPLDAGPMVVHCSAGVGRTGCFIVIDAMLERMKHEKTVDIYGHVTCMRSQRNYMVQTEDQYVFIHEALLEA
Description: as §3

SHP1 = molecular target: T3, SHP1 (Homo sapiens, UniProt P29350); assay: Inhibition of human recombinant tyrosine phosphatase SHP1 (DiFMUP fluorescence); type: biochemical; details: 1 µM; control solvent only; SD did not exceed 6%
T3 construct: purchased Sigma-Aldrich
T3 sequence (P29350 whole entry): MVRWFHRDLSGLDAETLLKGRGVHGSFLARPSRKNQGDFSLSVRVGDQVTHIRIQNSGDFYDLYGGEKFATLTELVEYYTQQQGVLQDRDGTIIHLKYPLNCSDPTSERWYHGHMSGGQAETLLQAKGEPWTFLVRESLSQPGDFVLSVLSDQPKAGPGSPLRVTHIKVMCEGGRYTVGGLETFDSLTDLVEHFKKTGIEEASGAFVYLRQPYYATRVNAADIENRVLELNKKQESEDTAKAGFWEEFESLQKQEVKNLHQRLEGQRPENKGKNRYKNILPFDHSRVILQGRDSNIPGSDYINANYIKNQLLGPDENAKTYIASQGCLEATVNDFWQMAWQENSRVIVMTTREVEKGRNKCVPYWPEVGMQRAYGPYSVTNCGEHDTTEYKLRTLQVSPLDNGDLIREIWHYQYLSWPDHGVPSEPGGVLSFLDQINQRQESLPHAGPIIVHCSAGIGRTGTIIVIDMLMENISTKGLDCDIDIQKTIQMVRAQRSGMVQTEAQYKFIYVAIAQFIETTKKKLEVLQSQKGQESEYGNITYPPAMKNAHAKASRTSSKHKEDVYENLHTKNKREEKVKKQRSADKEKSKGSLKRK
Description: as §3

SHP2 = molecular target: T4, SHP2 (Homo sapiens, UniProt Q06124); assay: Inhibition of human recombinant tyrosine phosphatase SHP2 (DiFMUP fluorescence); type: biochemical; details: 1 µM; control solvent only; SD did not exceed 6%
T4 construct: purchased Sigma-Aldrich
T4 sequence (Q06124 1-593): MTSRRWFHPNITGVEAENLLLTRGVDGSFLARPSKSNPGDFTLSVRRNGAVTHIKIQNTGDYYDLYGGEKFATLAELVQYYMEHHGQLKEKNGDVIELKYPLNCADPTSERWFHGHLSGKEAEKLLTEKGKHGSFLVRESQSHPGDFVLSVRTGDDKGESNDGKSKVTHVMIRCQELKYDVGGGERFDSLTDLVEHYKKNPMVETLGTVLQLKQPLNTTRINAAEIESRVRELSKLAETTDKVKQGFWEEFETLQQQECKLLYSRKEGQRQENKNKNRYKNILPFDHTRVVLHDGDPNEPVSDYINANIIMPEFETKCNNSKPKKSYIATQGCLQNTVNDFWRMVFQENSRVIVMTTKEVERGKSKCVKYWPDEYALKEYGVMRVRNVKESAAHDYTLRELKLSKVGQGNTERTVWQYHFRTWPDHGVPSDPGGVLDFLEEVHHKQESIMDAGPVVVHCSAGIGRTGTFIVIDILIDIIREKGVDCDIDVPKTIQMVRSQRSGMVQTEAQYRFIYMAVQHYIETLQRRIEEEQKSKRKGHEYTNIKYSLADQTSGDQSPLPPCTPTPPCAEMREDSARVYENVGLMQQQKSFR
Description: as §3

myocytes C2C12 [2] = assay: Glucose consumption (utilization) by myocytes C2C12; type: cell-based, mouse; details: 50 µM (highest tested concentration); 24 h
Description: The myocyte C2C12 cell line (ATCC CRL-1772), a subclone of myoblasts from mouse muscles, was cultured according to standard protocol in DMEM supplemented with 10% fetal calf serum, 100 IU/ml penicillin, and […] streptomycin at 37 °C in 5% CO2. Cells were pleated on a 96-well microplate and after reach confluence were differentiated in medium with 2% horse serum. Differentiation medium was changed every 72 h.
Differentiated myocytes C2C12 were used after 8 days of differentiation. The culture medium was changed for medium with 0.2% bovine serum albumin, 100 IU/mL penicillin, and 100 µg/mL streptomycin, and after 2 hours of incubation, the medium was changed to fresh medium containing the tested compounds. […]
Glucose concentration was determined based on enzymatic reaction with glucose oxidase and fluorometrically detection reaction end product using an AmplexRed Glucose/Glucose Oxidase Kit (Thermo Fisher Scientific) according to the manufacturer’s protocol. […] Fluorescence signal was measured at excitation of 530 nm and emission of 580 nm using a multimodal microplate reader POLARStar Omega (BMG Labtech), and glucose concentration in samples was calculated in MARS Data Analysis Software version 3.02.R2 (BMG Labtech) based on glucose standards. […] The final results were expressed as the percent of controls containing cells and solvent only.

myocytes C2C12 [3] = assay: Viability of myocytes C2C12 after 24 h incubation (resazurin-based reagent); details: 50 µM
Description: as §1, §2

Inhibition of PTP1B, percentage of inhibition of the control (PTP1B)	Inhibition of LAR, percentage of inhibition of the control (LAR)	Inhibition of SHP1, percentage of inhibition of the control (SHP1)	Inhibition of SHP2, percentage of inhibition of the control (SHP2)	SMILES	viability at 24 h, 50 µM [1]	Glucose consumption by myocytes C2C12, % of the control (myocytes C2C12 [2])	Cell viability of myocytes C2C12, % of the control (myocytes C2C12 [3])
				CN(CCOc1ccc(CC2SC(=O)NC2=O)cc1)c1ccccn1 (stereo not shown) [rosiglitazone, reference compound]	120 ± 7%		
24%	18%	56%	57%	COc1ccc(C(=O)NN=Cc2cc(Br)ccc2[O][V]2[O]C(c3ccc(OC)cc3)=NN=Cc3cc(Br)ccc3[O]2)cc1 [VC055, [V(L11)(HL11)]]		No statistically significant effect	127 ± 5%
